Source: patent publication US20130085133A1, “ANTI-VIRAL TREATMENT AND ASSAY TO SCREENFOR ANTI-VIRAL AGENT” (Sourthern Research Institute Office of Commercialization …, priority 2010, published 2013)

How the values were obtained:
[1] = cytotoxicity assay (percent viability of HEp-2 cells, Cell Titer-Glo); details: human, HEp-2 cells
Protocol: Test compounds were evaluated by measuring their antiviral activity, cell toxicity, and selectivity. Test compounds were serially diluted in a plate to plate matrix or “stacked plate” matrix. All 320 compounds in a source plate were diluted together resulting in a 10 point dose response dilution series. It was visualized as a serial dilution series proceeding vertically through a stack of plates with the high dose plate on top and the low dose plate on the bottom.
Following the six day incubation period, the assay plates were equilibrated to room temperature for 30 min and an equal volume (30 μL) of Cell Titer-Glo reagent (Promega Inc.) was added to each well using a WellMate (Matrix, Hudson, N.H.) and plates were incubated for an additional 10 min at room temperature. At the end of the incubation, luminescence was measured using a Perkin Elmer Envision™ multi-label reader (PerkinElmer, Wellesley, Mass.) with an integration time of 0.1 s.
Data was analyzed using ActivityBase software (IDBS, Inc, Guilford, UK). thirty two control wells containing cells only and twenty four wells containing cells and virus were included on each assay plate and used to calculate Z′ value for each plate and to normalize the data on a per plate basis. […] Eight ribavirin positive control wells were included on each plate for quality control purposes, but were not used in Z′ calculations. […] In the toxicity assay, results are described as percent viability and the calculation is the same.
An EC50 (for CPE inhibition) and IC50 (for cell viability) were calculated for each substance using the 4 parameter Levenburg-Marquardt algorithm with parameter A locked at 0 and parameter B locked at 100. Standard deviation, normalized chi2 and hill slope were used to evaluate the curves. Values were not extrapolated beyond the tested range of concentrations.

[2] = tested on: respiratory syncytial virus (RSV) strain Long; assay: microbe, parasite or virus in culture; details: human respiratory syncytial virus, HEp-2, 144 h
[3] = tested on: RSV, Long strain; assay: virus titer Reduction (VTR) assay, progeny virus TCID50 in HEp-2 cells; format: cell-based, respiratory syncytial virus (RSV); details: human respiratory syncytial virus, 48 h; for log reduction at 5 µg/mL: 5 ug/ml compound, read-out: TCID-50 Reduction @ 5 ug/ml; for log reduction at 12 µg/mL: 12 ug/ml compound, read-out: TCID-50 Reduction 12 @ ug/ml; for log reduction at 25 µg/mL: 25 ug/ml compound, read-out: TCID-50 Reduction 25 @ ug/ml; for log reduction at 50 µg/mL: 50 ug/ml compound, read-out: TCID-50 Reduction @ 50 ug/ml; for log reduction at 3 µg/mL: 3 ug/ml compound, read-out: TCID-50 Reduction @ 3 ug/ml; for log reduction at 6 µg/mL: 6 ug/ml compound, read-out: TCID-50 Reduction 6 @ ug/ml
Protocol: Four concentrations of each compound were evaluated (Table 3). Briefly, the four concentrations of test compounds, HEp-2 cells (8×10^3 per well) and RSV, Long strain (MOI=0.9) were plated in 96 well microtiter plates. The plates were incubated for 48 hours. Fifteen (15) μl of 10-fold serial dilution of progeny virus containing medium from respective samples (test compound treated or untreated) was transferred to infect fresh HEp-2 cells (2×10^3 cells per well) in a 384 well format. Plates were incubated for an additional 6 days and luminescence was measured using Cell Titer-Glo reagent (Promega Inc.) to determine cell viability. […] A well showing lesser than 50% cell viability was regarded as positive for virus infection. Four replicates for each virus dilution were analyzed and the number of virus positive wells (out of 4) was plotted versus the dilution. TCID50 was calculated to be the dilution that produced two positive wells out of four using ActivityBase software (IDBS, Inc, Guilford, UK).

Row | Compound | CC50 at 6 days [1] | EC50 [2] | log reduction at 5 µg/mL [3] | log reduction at 12 µg/mL [3] | log reduction at 25 µg/mL [3] | log reduction at 50 µg/mL [3] | log reduction at 3 µg/mL [3] | log reduction at 6 µg/mL [3]
1 | CC1(C)O[C@@H]2[C@H](O1)[C@@H](CO)O[C@H]2n1ncc(=O)[nH]c1=O [AB00174524] | > 50 µM | 3.25 µM | 4.58 | 5.98 | 5.56 | 5.87 |  | 
2 | CCCSC1=C(C#N)C(c2ccco2)C(C(=O)Nc2ccccc2)=C(C)N1 (centres unmarked) [AB00276073] | > 25 µg/mL | 5.12 µg/mL |  | 1.39 | 3.57 |  | 1 | 0.63
3 | CC1=Nc2ccc(C)c3nc(C)cc(c23)N1c1ccc(C)cc1 [AB00280244] | > 25 µg/mL | 8.62 µg/mL |  | 1.55 | 2.89 |  | 1.55 | 1.36
4 | O=C(Nc1ccc(Nc2ccccc2)cc1)c1ccccc1Cl [AB00280499] | > 25 µg/mL | 6.6 µg/mL |  | 3.69 | 2.96 |  | 2.55 | 2.38
5 | CCOC(=O)Cc1nnc(Nc2ccc(C)cc2)c2ccccc12 [AB00285095] | > 25 µg/mL | 9.72 µg/mL |  | 1.99 | 2.56 |  | 1 | 1.32
6 | O=C(CCSc1ccccc1)Nc1ccccc1C(=O)O [AB00289457] | > 25 µg/mL | 2.97 µg/mL |  | 6.73 | 6.57 |  | 1 | 4.9
7 | Cc1cccc(N2C(=O)CC(Cc3ccc(Cl)cc3)C2=O)c1Cl (centres unmarked) [AB00292352] | > 25 µg/mL | 8.56 µg/mL | 2.31 | 3.82 | 5.9 |  | 1.22 | 
8 | COc1ccc(C(=O)Nc2ccc3c(c2)OCCO3)c(OC)c1 [AB00296320] | > 25 µg/mL | 8.34 µg/mL |  | 2.9 | 4.66 |  | 1.55 | 1.38
9 | CCCn1c(COc2ccccc2OC)nc2ccccc21 [AB00296415] | > 25 µg/mL | 4.88 µg/mL | 2.48 | 2.59 | 5.9 |  | 1.74 | 
10 | CCCn1cnc2sc(-c3ccccc3)cc2c1=O [AB00298501] | > 25 µg/mL | 3.14 µg/mL |  | 2.9 | 3.78 |  | 1.82 | 2.38
11 | CC(=O)N(CCCCN1C(=O)c2ccccc2C1=O)c1ccc(C)cc1 [AB00300194] | > 25 µg/mL | 9.01 µg/mL | 1.83 | 2.04 | 2.56 |  | 1.41 | 
12 | Cc1ccc(N(CCCCN2C(=O)c3ccccc3C2=O)C(=O)c2cccc([N+](=O)[O-])c2)cc1 [AB00301184] | > 25 µg/mL | 2.53 µg/mL |  | 1.9 | 1.88 |  | 1.53 | 1.67
13 | O=C1c2ccccc2C(=O)N1CCCCN(C(=O)c1cccc([N+](=O)[O-])c1)c1ccc(Cl)cc1 [AB00301782] | > 25 µg/mL | 2.01 µg/mL |  | 1.42 | 0.87 |  | 1.55 | 1.64
14 | O=c1c2c([nH]c3ccccc13)-c1ccccc1-n1c(nc3ccccc3c1=O)C2 [AB00700560] | > 50 µM | 11.3 µM |  |  |  |  |  | 
15 | O=C(Nc1ccccc1)N1CCc2cc([N+](=O)[O-])ccc21 [AB00705281] |  |  | 4.75 | 4.2 | 5.56 | 5.9 |  | 
16 | Cc1cc(C)n(-c2ccc(C(=O)Nc3cc(Cl)ccc3C)cc2)n1 [AB00712667] | > 50 µM | 24 µM |  |  |  |  |  | 
17 | CCOC(=O)C1=C(C)NC(C)=C(C(=O)OCC)C1C(=O)OCC(=O)Nc1c(Cl)cccc1Cl [AB00712684] | > 50 µM | 21.9 µM |  |  |  |  |  | 
18 | CSc1ccc(Cl)c(C(=O)Nc2ccc(N3CCCCC3)cc2)c1 [AB00717474] | > 50 µM | 12.2 µM |  |  |  |  |  | 
19 | C=CC/N=c1\scc(-c2ccc(C)cc2)n1/N=C/c1ccccn1 [AB00718339] | > 50 µM | 1.14 µM |  |  |  |  |  | 
20 | CCOC(=O)c1ccccc1NC(=O)c1cc(S(=O)(=O)N(CC)c2ccccc2)ccc1Cl [AB00718457] | > 50 µM | 23.8 µM |  |  |  |  |  | 
21 | Cc1ccc(O)c(C(=O)c2cc(C(=O)Nc3ccccc3C)c(=O)n(-c3ccccc3C)c2)c1 [AB00719359] | > 50 µM | 29.8 µM |  |  |  |  |  | 
22 | Cc1ccc(-c2csc(NC(=O)COC(=O)c3cccc(Cl)c3)n2)cc1C [AB00720414] | > 50 µM | 49.1 µM |  |  |  |  |  | 
23 | CC(C)(C)C1CCc2nc3ccccc3c(C(=O)OCC(=O)Nc3ccc(C#N)cc3)c2C1 (centres unmarked) [AB00721928] | > 50 µM | 41.9 µM |  |  |  |  |  | 
24 | C/C(N)=C(/C#N)C(=O)COC(=O)c1ccccc1SCC(=O)NC1CCCCCCC1 [AB00723775] | > 50 µM | 23.4 µM |  |  |  |  |  | 
25 | C/C(N)=C(/C#N)C(=O)CSc1nnc2c(Cl)cc(C(F)(F)F)cn12 [AB00724801] | > 50 µM | 16.2 µM |  |  |  |  |  | 

Row | Compound | CC50 at 6 days [1] | EC50 [2] | log reduction at 5 µg/mL [3] | log reduction at 12 µg/mL [3] | log reduction at 25 µg/mL [3] | log reduction at 50 µg/mL [3] | log reduction at 3 µg/mL [3] | log reduction at 6 µg/mL [3]
26 | O=C(COC(=O)c1c2c(nc3ccccc13)/C(=C/c1cccs1)CC2)NCC(F)(F)F [AB00725240] | > 50 µM | 43.3 µM |  |  |  |  |  | 
27 | CCOc1ccccc1/C=C(\C#N)c1nc2sc3c(c2c(=O)[nH]1)CCCC3 [AB00726710] | > 50 µM | 30.9 µM |  |  |  |  |  | 
28 | CCc1ccc(Nc2nnc(SCC(=O)Nc3cc(OC)c([N+](=O)[O-])cc3C)s2)cc1 [AB00728303] | > 50 µM | 28.3 µM |  |  |  |  |  | 
29 | C/C(N)=C(/C#N)C(=O)CSc1nc2sc3c(c2c(=O)n1-c1ccccc1C(F)(F)F)CCCCC3 [AB00728757] | > 50 µM | 18.1 µM |  |  |  |  |  | 
30 | COCCn1c(SCC(=O)NC2CCCc3ccccc32)nnc1-c1cccc(C)c1 (centres unmarked) [AB00728760] | > 50 µM | 37.9 µM |  |  |  |  |  | 
31 | O=C(CCNC(=O)c1ccc(Br)cc1)NC1CCCc2ccccc21 (centres unmarked) [AB00739576] | > 50 µM | 24.7 µM |  |  |  |  |  | 
32 | CCN(c1ccccc1)S(=O)(=O)c1cccc(C(=O)Nc2nccs2)c1 [AB00739796] | > 50 µM | 22.2 µM |  |  |  |  |  | 
33 | C=CCn1c(SC(C)C(=O)Nc2cc(C(F)(F)F)ccc2Cl)nnc1-c1ccccc1OC (centres unmarked) [AB00741842] | > 50 µM | 26.7 µM |  |  |  |  |  | 
34 | COc1ccc(-c2nc(CSc3nnc(C4CC4)n3C3CC3)cs2)cc1 [AB00747970] | > 50 µM | 10.8 µM |  |  |  |  |  | 
35 | Cc1cccc(NC(=O)COC(=O)c2ccc(F)cc2N)c1C [AB00756405] | > 50 µM | 11.5 µM |  |  |  |  |  | 
36 | O=C(c1cccc(OC(F)F)c1)N1CCc2cc([N+](=O)[O-])ccc21 [AB00764110] | > 50 µM | 41.5 µM |  |  |  |  |  | 
37 | CC(=O)Nc1cc(C(=O)CSc2nc3ccccc3n2C)ccc1O [AB00766545] | > 50 µM | 26.2 µM |  |  |  |  |  | 
38 | COc1cccc(Nc2nnc(SCC(=O)/C(C#N)=C(\C)N)s2)c1 [AB00767910] | > 50 µM | 6.07 µM |  |  |  |  |  | 
39 | O=C(COc1ccc(Cl)c(Cl)c1)Nc1cccc(C(=O)NC2CC2)c1 [AB00784993] | > 50 µM | 12 µM |  |  |  |  |  | 
40 | Cc1noc(C)c1S(=O)(=O)N1CCN(Cc2ccccc2C#N)CC1 [AB00785032] | > 50 µM | 46.5 µM |  |  |  |  |  | 
41 | Cc1ccc(-c2csc3ncn(Cc4cc(=O)oc5cc(Br)ccc45)c(=O)c23)cc1 [AB00785889] | > 50 µM | 23.4 µM |  |  |  |  |  | 
42 | Cc1ccc2c(Cn3cnc4scc(-c5ccc(Br)cc5)c4c3=O)cc(=O)oc2c1 [AB00796961] | > 50 µM | 31.9 µM |  |  |  |  |  | 
43 | Cc1ccc2c(Cn3cnc4scc(-c5ccc(F)cc5)c4c3=O)cc(=O)oc2c1 [AB00796970] | > 50 µM | 10.6 µM |  |  |  |  |  | 
44 | COc1cc(SC)ccc1C(=O)Nc1ccc(C(=O)NC2CC2)cc1 [AB00797753] | > 50 µM | 29.9 µM |  |  |  |  |  | 
45 | CC(=O)Nc1ccc(S(=O)(=O)N(C)CC(=O)Nc2ccccc2Oc2ccccc2)cc1 [AB00798716] | > 50 µM | 49.8 µM |  |  |  |  |  | 
46 | NCc1cn2ccccc2n1 [AB00877180] | > 50 µM | 15.1 µM |  |  |  |  |  | 
47 | Clc1ccccc1OCc1noc(-c2cccs2)n1 [AB00877365] | > 50 µM | 38.8 µM |  |  |  |  |  | 
48 | O=C(CCc1ccccc1)Nc1sc2c(c1C(=O)O)CCC2 [AB00877405] | > 50 µM | 27.8 µM |  |  |  |  |  | 
49 | CNc1ncnc2c1ncn2[C@@H]1C[C@H](CO)[C@H](O)[C@@H]1O [SRI-4711] | > 50 µM | 24.5 µM |  |  |  |  |  | 
